growth, % of control and Activity data for seven compounds are collected here from ChEMBL document CHEMBL3098042, “New carbocyclic nucleoside analogues with a bicyclo[2.2.1]heptane fragment as sugar moiety; synthesis, X-ray crystallography and anticancer activity” (2014).

Assay [1] deals with T47D. Kind of assay: Growth inhibition of human T47D cells at 10^-5 M relative to control. Particulars: values are per cent of control. In kind it is functional.
The test system of assay [2] is MDA-MB-468. The assay is described as follows: Growth inhibition of human MDA-MB-468 cells at 10^-5 M relative to control. Particulars: values are per cent of control. In kind it is functional.
The test system of assay [3] is MCF7. The assay is described as follows: Growth inhibition of human MCF7 cells at 10^-5 M relative to control. Type of assay: functional. Particulars: values are per cent of control.
A short description of assay [4]: Growth inhibition of human UO31 cells at 10^-5 M relative to control. Type of assay: functional. The following applies: UO-31, values are per cent of control.
The subject of assay [5] is PC-3. Kind of assay: Growth inhibition of human PC3 cells at 10^-5 M relative to control. Type of assay: functional. Particulars: values are per cent of control.
The nature of assay [6]: Growth inhibition of human RXF393 cells at 10^-5 M relative to control. Type of assay: functional. Particulars: RXF 393, values are per cent of control.
A short description of assay [7]: Growth inhibition of human NCI-ADR-RES cells at 10^-5 M relative to control. The following applies: values are per cent of control. Type of assay: functional.
For assay [8], the system named is CAKI-1. The assay is described as follows: Growth inhibition of human CAKI-1 cells at 10^-5 M relative to control. In kind it is functional. The following applies: values are per cent of control.
Assay [9] can be described thus: Growth inhibition of human OVCAR5 cells at 10^-5 M relative to control. In kind it is functional. The following applies: OVCAR-5, values are per cent of control.
The subject of assay [10] is IGROV-1. The assay is described as follows: Growth inhibition of human IGROV1 cells at 10^-5 M relative to control. In kind it is functional. Particulars: values are per cent of control.
Assay [11] concerns LOX IMVI. Kind of assay: Growth inhibition of human LOXIMVI cells at 10^-5 M relative to control. Type of assay: functional. The following applies: values are per cent of control.
The subject of assay [12] is SK-MEL-5. Kind of assay: Growth inhibition of human SK-MEL-5 cells at 10^-5 M relative to control. In kind it is functional. The following applies: values are per cent of control.
Assay [13] concerns SNB-75. Kind of assay: Growth inhibition of human SNB75 cells at 10^-5 M relative to control. In kind it is functional. The following applies: values are per cent of control.
Assay [14] concerns HCT-116. The assay is described as follows: Growth inhibition of human HCT116 cells at 10^-5 M relative to control. Particulars: values are per cent of control. In kind it is functional.
The subject of assay [15] is HCT-15. The assay is described as follows: Growth inhibition of human HCT15 cells at 10^-5 M relative to control. Type of assay: functional. Particulars: values are per cent of control.
For assay [16], the system named is NCI-H522. Kind of assay: Growth inhibition of human NCI-H522 cells at 10^-5 M relative to control. In kind it is functional. The following applies: values are per cent of control.
In assay [17] the test system is NCI-H322M. The assay is described as follows: Growth inhibition of human NCI-H322M cells at 10^-5 M relative to control. In kind it is functional. The following applies: values are per cent of control.
Assay [18] has as its system MOLT-4. The assay is described as follows: Growth inhibition of human MOLT4 cells at 10^-5 M relative to control. The following applies: values are per cent of control. Type of assay: functional.
Assay [19] has as its system SR. Kind of assay: Growth inhibition of human SR cells at 10^-5 M relative to control. Type of assay: functional. The following applies: values are per cent of control.
For assay [20], the system named is K562. Kind of assay: Growth inhibition of human K562 cells at 10^-5 M relative to control. In kind it is functional. Particulars: values are per cent of control.
Assay [21] concerns HL-60(TB). Kind of assay: Growth inhibition of human HL-60(TB) cells at 10^-5 M relative to control. In kind it is functional. Particulars: values are per cent of control.
The test system of assay [22] is CCRF-CEM. Kind of assay: Growth inhibition of human CCRF-CEM cells at 10^-5 M relative to control. Particulars: values are per cent of control. In kind it is functional.
The subject of assay [23] is NCI-H226. Kind of assay: Growth of human NCI-H226 cells at 10^-5 M relative to control.
Assay [24] can be described thus: Anticancer activity against human U937 cells assessed as decrease in uridine incorporation at 30 uM relative to control. Type of assay: functional, U-937. Also noted: scale not given: the % may be the effect or the level left.

For `Nc1ncnc2c1ncn2[C@H]1C[C@H]2[C@H](CO)[C@@H]1C[C@@H]2Cl`, the growth, % of control at 10 µM was determined as 102% in assay [1]; 103% in [2]; 100% in assay [3]; 94.2% in [4]; 99.3% in assay [5]; 106% in assay [6]. In addition, the growth, % of control at 10 µM is 103% in assay [7]; 86.9% in assay [8]; 90.1% in assay [9]; 103% in assay [10]; 91.8% in [11]; 96.5% in assay [12]. The growth, % of control at 10 µM came out at 103% in assay [13]; 89.2% in [14]; 97.5% in [15]; 98.7% in [16]; 102% in [17]; 85.6% in assay [18]. The growth, % of control at 10 µM is 88.9% in assay [19]; 97.1% in [20]; 95.8% in assay [21]; 90.1% in assay [22]; 110% in assay [23].
For `CN(C)c1ncnc2c1ncn2[C@H]1C[C@@H]2C=C[C@H]1[C@H]2CO`, the growth, % of control at 10 µM turned out to be 104% in [1]; 98.2% in assay [2]; 98.7% in assay [3]; 82.7% in [4]; 92% in assay [5]; 109% in [6]. For the same compound, the growth, % of control at 10 µM came to 99.5% in assay [7]; 97.9% in assay [8]; 96.5% in assay [9]; 98.2% in assay [10]; 95.8% in [11]; 98.3% in assay [12]. Further, the growth, % of control at 10 µM in assay [13] was determined as 109%; in [14] it was 94.8%; in [15] it was 98.9%; in assay [16] it was 98.5%; in [17], 104%; in assay [18] it was 79.7%. Moreover, the growth, % of control at 10 µM amounted to 82.2% in assay [19]; 90% in [20]; 88.8% in assay [21]; 87.9% in assay [22]; 109% in [23].
Regarding `OC[C@H]1[C@@H]2C[C@H](n3cnc4c(NC5CC5)ncnc43)[C@H]1C[C@@H]2Cl`, the growth, % of control at 10 µM worked out at 89.6% in assay [1]; 100% in [2]; 98.5% in assay [3]; 85.8% in [4]; 104% in [5]; 110% in assay [6]. Besides, the growth, % of control at 10 µM in assay [7] turned out to be 101%; in [8], 102%; in assay [9], 95%; in [10], 90.6%; in [11], 89.6%; in assay [12], 101%. Also, the growth, % of control at 10 µM in assay [13] stood at 97.8%; in assay [14], 96.5%; in [15] it was 96.5%; in assay [16], 88.7%; in assay [17], 90%; in assay [18], 84.8%. Moreover, the growth, % of control at 10 µM in [19] is 86.6%; in assay [20] it was 95.8%; in assay [21], 89%; in assay [22] it was 89.5%; in assay [23] it was -27.2%.
On to `CCN(CC)CCCNc1ncnc2c1ncn2[C@H]1C[C@H]2[C@H](CO)[C@@H]1C[C@@H]2Cl`, for which the growth, % of control at 10 µM in assay [1] came to 104%; in assay [2], 101%; in [3], 95.9%; in assay [4] it was 80.6%; in assay [5], 102%; in assay [6] it was 111%. Further, the growth, % of control at 10 µM in [7] amounted to 103%; in assay [8] it was 93%; in assay [9] it was 99.7%; in [10], 112%; in assay [11], 96.9%; in [12], 102%. The growth, % of control at 10 µM in assay [13] came out at 99.2%; in [14], 98.5%; in [15], 101%; in assay [16], 93.2%; in assay [17], 93.2%; in assay [18], 83.6%. For the same compound, the growth, % of control at 10 µM in assay [19] stood at 85.8%; in [20] it was 106%; in [21], 90.5%; in [22], 90.2%; in [23], 105%.
On to `CN(C)c1ncnc2c1ncn2[C@H]1C[C@H]2[C@H](CO)[C@@H]1C[C@@H]2Cl`, for which the growth, % of control at 10 µM worked out at 96.8% in [1]; 102% in assay [2]; 94.9% in assay [3]; 79.1% in assay [4]; 93.3% in [5]; 109% in assay [6]. Also, the growth, % of control at 10 µM worked out at 98.7% in assay [7]; 95.1% in [8]; 90.3% in assay [9]; 101% in assay [10]; 96.8% in assay [11]; 99.5% in assay [12]. Also, the growth, % of control at 10 µM in [13] came out at 99.3%; in assay [14], 101%; in assay [15] it was 100%; in assay [16], 88.3%; in assay [17] it was 96.8%; in assay [18], 78.9%. For the same compound, the growth, % of control at 10 µM stood at 81.4% in assay [19]; 91% in [20]; 98.2% in [21]; 86.7% in [22]; 101% in assay [23].
Regarding `OC[C@H]1[C@@H]2C[C@H](n3cnc4c(N5CCOCC5)ncnc43)[C@H]1C[C@@H]2Cl`, the growth, % of control at 10 µM in assay [1] is 100%; in assay [2], 110%; in assay [3], 99.9%; in assay [4], 76.9%; in [5] it was 98.5%; in assay [6], 113%. Also, the growth, % of control at 10 µM in assay [7] came to 99%; in assay [8], 87.2%; in assay [9], 93%; in assay [10], 92.3%; in assay [11], 95.8%; in assay [12], 99.8%. Moreover, the growth, % of control at 10 µM in assay [13] came to 85.6%; in [14], 89.6%; in assay [15], 93%; in assay [16] it was 94.5%; in assay [17], 100%; in assay [18], 81.1%. Besides, the growth, % of control at 10 µM in assay [19] was 82.3%; in [20], 90.7%; in [21] it was 91.9%; in assay [22], 84.9%; in assay [23], 108%.
On to `O=c1[nH]c(=O)n([C@H]2C[C@@H]3[C@@H](/C=C/[C@@H](O)COc4cccc(Cl)c4)[C@H](O)C[C@@H]3O2)cc1I`, for which the Activity in assay [24] is reported as 64%.
